From ChEMBL document CHEMBL1155972, “From natural products to achiral drug prototypes: potent thrombin inhibitors based on P2/P3 dihydropyrid-2-one core motifs” (Bioorg Med Chem Lett, 2009)

Columns and labels:
Prothrombin = Prothrombin (Homo sapiens, UniProt P00734); test: Inhibition of human thrombin
[1] = Inhibition of bovine trypsin; parameters: species or system Bos taurus
[2] = Dissociation constant, pKa of the compound; format: physicochemical

Row | Compound | IC50 (Prothrombin) [nM] | IC50 [1] [nM] | pKa [2]
1 | Cc1ccn(NS(=O)(=O)Cc2ccccc2)c(=O)c1CC(=O)NCc1ccc(C(=N)N)cc1 | 3960 | 14900 | –
2 | CC1=C(CC(=O)NCc2ccc(C(=N)N)cc2)C(=O)N(NS(=O)(=O)c2cc(Cl)ccc2Cl)CC1 | 10 | 1250 | –
3 | CC1=C(CC(=O)NCc2ccc(C(=N)N)cc2)C(=O)N(NS(=O)(=O)c2cc(C)ccc2C)CC1 | 6 | 374 | 8.7
4 | COc1cc(C)ccc1S(=O)(=O)NN1CCC(C)=C(CC(=O)NCc2ccc(C(=N)N)cc2)C1=O | 44 | 117 | –
5 | COc1cccc(S(=O)(=O)NN2CCC(C)=C(CC(=O)NCc3ccc(C(=N)N)cc3)C2=O)c1 | 11 | 860 | 8.8
6 | Cc1ccn(NS(=O)(=O)c2cccc3ccccc23)c(=O)c1CC(=O)NCc1ccc(C(=N)N)cc1 | 17100 | 5.8 | –
7 | COc1cccc(S(=O)(=O)Nn2ccc(C)c(CC(=O)NCc3ccc(C(=N)N)cc3)c2=O)c1 | – | 15600 | –
8 | Cc1ccc(C)c(S(=O)(=O)Nn2ccc(C)c(CC(=O)NCc3ccc(C(=N)N)cc3)c2=O)c1 | – | 7130 | –
9 | CC1=C(CC(=O)NCc2ccc(C(=N)N)cc2)C(=O)N(NS(=O)(=O)c2ccc(Cl)cc2F)CC1 | 106 | 683 | –
10 | Cc1ccn(NS(=O)(=O)c2ccccc2)c(=O)c1CC(=O)NCc1ccc(C(=N)N)cc1 | – | 5770 | 5.9
11 | COc1cc(C)ccc1S(=O)(=O)Nn1ccc(C)c(CC(=O)NCc2ccc(C(=N)N)cc2)c1=O | – | 2020 | 6.7
12 | CC1=C(CC(=O)NCc2ccc(C(=N)N)cc2)C(=O)N(NS(=O)(=O)c2cccc3ccccc23)CC1 | 915 | 8.2 | –
13 | CC(C)[C@@H](Cl)[C@@H](NC(=O)[C@H](O)Cc1ccccc1)C(=O)N1[C@H](C(=O)NCc2ccc(C(=N)N)cc2)C[C@@H]2CCCC[C@@H]21 | 1.6 | – | –
14 | CC[C@@H](C)[C@@H](NC(=O)[C@H](O)Cc1ccccc1)C(=O)N1[C@H](C(=O)NCc2ccc(C(=N)N)cc2)C[C@@H]2CCCC[C@@H]21 | 3.3 | – | –
15 | CO[C@H](COS(=O)(=O)[O-])C(=O)N[C@@H](C(=O)N1[C@H](C(=O)NCCC2=CC[N+](=C(N)N)C2)C[C@@H]2C[C@H](O)[C@@H](O)C[C@@H]21)[C@H](Cl)C(C)C [CHLORODYSINOSIN A] | 5.8 | – | –
16 | CO[C@H](COS(=O)(=O)[O-])C(=O)N[C@H](CC(C)C)C(=O)N1[C@H](C(=O)NCCC2=CC[N+](=C(N)N)C2)C[C@@H]2C[C@H](O)[C@@H](O)C[C@@H]21 [DYSINOSIN A] | 46 | – | –
17 | CC1=C(CC(=O)NCc2ccc(C(=N)N)cc2)C(=O)N(NS(=O)(=O)c2ccccc2)CC1 | 42 | 766 | –
18 | N=C(N)c1ccc(CNC(=O)[C@@H]2C[C@@H]3CCCC[C@@H]3N2C(=O)[C@H](NC(=O)[C@H](O)Cc2ccccc2)C(C2CCCCC2)C2CCCCC2)cc1 | 3.4 | – | –
19 | CC1=C(CC(=O)NCc2ccc(C(=N)N)cc2)C(=O)N(NS(=O)(=O)c2c(C)cccc2Cl)CC1 | 3 | 286 | –
